The values that follow come from ChEMBL document CHEMBL1201862, “PubChem BioAssay data set” (2004).

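Assay format: 96-well plates, 48-hour exposure. GI50: concentration for 50% inhibition of growth.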 Calls of active or inactive are those of the source. No stated cut-off is given here; in the data, active = GI50 up to about 1.1 µM and inactive = higher. Residues, ends and D or L forms follow the SMILES beside them. *: point of attachment. Cbz = O=C(OCc1ccccc1)*

Test in all cases: inhibition of tumour cell growth, NCI panel, 48 h
For assay [1], the system named is PC-3.
In assay [2] the test system is MDA-N.
The subject of assay [3] is M19-MEL.
The subject of assay [4] is DMS-114.
Assay [5] concerns KM-20L2.

Consider `COc1ccc(OC)c2c1C=CC(Br)=CC2`, for which the GI50 was 0.352 µM (active) in assay [1] and 0.229 µM (active) in assay [2].
Taken in the same sequence, the figures for `c1ccc(-c2nc(-c3ccccc3)c(-c3ccccc3)[nH]2)cc1` were > 100 µM (inactive) and > 88.7 µM (inactive).
Taken in the same sequence, the figures for `Cc1cn(C2CC(O)C(COP(=O)(O)OC3CC(n4c[n+]([BH2-]C#N)c5c(=O)[nH]c(N)nc54)OC3CO)O2)c(=O)[nH]c1=O` (stereo unspecified) were > 100 µM (inactive) and > 100 µM (inactive).
On to `Cn1c(=O)[nH]c2[nH]c3ccccc3c2c1=O`, for which the GI50 in assay [2] is > 100 µM (inactive).
Turning to `O=C1C=C(OCCCCl)C(=O)c2c(O)ccc(O)c21`, the GI50 in assay [1] is 1.93 µM (inactive); in assay [2], 0.184 µM (active).
For `CCN(CC)c1c(C(C)(C)C)c(=O)n2ccsc2c1OC(C)=O` the same measures were 11.2 µM (inactive) and 18.6 µM (inactive).
For the molecule `O=C1CCCC/C1=C\c1ccc(Br)cc1`, the GI50 in assay [1] was 97.7 µM (inactive); in assay [2], 16.3 µM (inactive).
Taken in the same sequence, the figures for `CC1C2(C)OC(=N)C(C#N)(C(C)O2)C1(C#N)C#N` (stereo unspecified) were 31.8 µM (inactive) and 18.6 µM (inactive).
For `NNC(=O)c1ccccc1NC(=O)/C(=C/c1ccccc1)NC(=O)c1ccccc1` the same measures were > 100 µM (inactive) and 72.4 µM (inactive).
For `C[C@@H]1C[C@](O)([C@@H](C)Cl)C(=O)O[C@@H]2CCN3CC=C(COC(=O)[C@]1(C)O)[C@H]23` the same measures were > 100 µM (inactive) and > 100 µM (inactive).
Take `Cc1ccc(/C=C2\CCCC(CN3CCCCC3)C2=O)cc1` (stereo unspecified): the results for the GI50 in assay [1] and in assay [2] were 2.79 µM (inactive) and 2.77 µM (inactive), respectively.
For `CC(NC(=O)C(NC(=O)OCc1ccccc1)C(C)C)C(=O)NCC(=O)O` (stereo not drawn) (Cbz-Val-Ala-Gly-OH; configuration not given here), the GI50 in assay [1] and in assay [2] was > 100 µM (inactive) throughout.
Consider `CC(C)CC(C#CCCOC(=O)c1ccccc1)OC(=O)c1ccccc1` (stereo unspecified), for which the GI50 in assay [1] and in assay [2] was > 10 µM (inactive) throughout.
As for `N=C(N)c1ccc(/C=C/c2ccc(C(=N)N)cc2)cc1`, the GI50 in assay [1] is 64.9 µM (inactive); in assay [2], > 100 µM (inactive).
For the molecule `COc1c(C)c(OC)c2c(c1O)[C@@H]1[C@@H]3Cc4c(OC)c(C)c(OC)c(O)c4[C@H](CNC(=O)c4ccc5ccccc5n4)N3[C@@H](C#N)[C@H](C2)N1C`, the GI50 in assay [1] was 0.00234 µM (active); in assay [2] it was 0.000807 µM (active).
For the molecule `Cc1ccc(Nc2nc(N)nc3c2ncn3C2OC(CO)C(O)C2O)cc1` (stereo unspecified), the GI50 in assay [1] and in assay [2] was > 100 µM (inactive) each time.
In the case of `O=[N+]([O-])c1ccc(N/N=C(\c2ccccc2)c2ccccn2)nc1`, the GI50 was 0.92 µM (active) in assay [1] and 20 µM (inactive) in assay [2].
Take `CO[C@]12C[C@@H](CNC(=O)c3cc(Br)c[nH]3)O[C@H]1NC(=O)N2`: the GI50 in assay [1] is > 100 µM (inactive).
With `COc1ccc(/C=C2/CCS(=O)(=O)c3ccc(C)cc3C2=O)cc1OC`, the values for the GI50 in assay [1] and in assay [2] were 15.8 µM (inactive) and 11.9 µM (inactive), respectively.
Turning to `CCOC(=O)N1CCN(Cc2cc(=O)n3ccc(C)cc3n2)CC1`, the GI50 in assay [1] and in assay [2] was > 100 µM (inactive) each time.
For the molecule `CCOC(=O)/C=C/C1=C(Br)[C@@]2(C)CC[C@@H]3c4ccc(O)cc4CC[C@H]3[C@@H]2C1`, the results for the GI50 in assay [1] and in assay [2] were 15.2 µM (inactive) and 13.8 µM (inactive), respectively.
Regarding `COc1cccc(-c2ccc3c4c2O[C@H]2c5[nH]c6ccccc6c5C[C@@]5(O)[C@@H](C3)N(CC3CC3)CC[C@]425)c1`, the GI50 in assay [2] was 1.85 µM (inactive).
`COc1ncc(C=C(C#N)C#N)c(OC)n1`: the GI50 in assay [1] was 39.2 µM (inactive); in assay [2] it was 26.9 µM (inactive).
For `CCCCCCCCCCCC/C=C\CC[C@@H](O)[C@H](O)CC[C@H](O)[C@@H]1CC[C@@H](CCCCCCCC2=C[C@H](C)OC2=O)O1` [GIGANTRIONENIN] the same measures were 2.75 µM (inactive) and 3.91 µM (inactive).
Taken in the same sequence, the figures for `C1=C2C3=[N+](CCCC3)CC2Cc2sccc21` (stereo unspecified) were 45.6 µM (inactive) and > 100 µM (inactive).
For `COC(=O)c1cc(C)n2c1CS[C@@H]2c1ccccc1` the same measures were 40.5 µM (inactive) and 21.1 µM (inactive).
As for `C/C(Cl)=N/OC(=O)Nc1ccc(S(N)(=O)=O)c(C)c1`, the GI50 was 18.3 µM (inactive) in assay [1] and 11.7 µM (inactive) in assay [2].
`CN1CCCN2CCN(C)CCN(CC1)CC2`: the GI50 in assay [1] and in assay [2] was > 100 µM (inactive) throughout.
Consider `O=C1Nc2ccccc2C1Cc1ccccc1` (stereo unspecified), for which the GI50 in assay [1] and in assay [2] was > 100 µM (inactive) throughout.
As for `Cc1cccc(-n2c(C)nc3ccc(NC4OC(CO)C(O)C(O)C4O)cc3c2=O)c1` (stereo unspecified), the GI50 in assay [1] and in assay [2] was > 100 µM (inactive) in each case.
With `CCOC(=O)C(C(N)=O)C1=Nc2cc([N+](=O)[O-])ccc2N/C1=C\C(=O)c1ccccc1` (stereo unspecified), the results for the GI50 in assay [1] and in assay [2] were 15.5 µM (inactive) and 18.7 µM (inactive), respectively.
For `O=[N+]([O-])C1=Cc2c(O)ccc(O)c2C2c3ccccc3NC12` (stereo unspecified) the same measures were 6.3 µM (inactive) and 18.3 µM (inactive).
Taken in the same sequence, the figures for `Cc1ccc(S(=O)(=O)N(CC(O)COc2ccccc2)c2c(F)c(F)c(F)c(F)c2F)cc1` (stereo unspecified) were 13.6 µM (inactive) and 15.6 µM (inactive).
Take `CC(C)(C)c1ccc2c(c1)CNCCNCc1cc(C(C)(C)C)ccc1OCC1(CO2)COc2ccc(C(C)(C)C)cc2CNCCNCc2cc(C(C)(C)C)ccc2OC1`: the GI50 in assay [1] is 1.58 µM (inactive); in assay [2] it was 0.649 µM (active).
For the molecule `CCN(CC)CCNc1c(OC)cc(C)c2sc3ccccc3c(=O)c12`, the GI50 in assay [1] was 7.71 µM (inactive).
The same measure, in the same setting: the result for `N=C(N)c1ccc(/N=N/c2c(O)ccc3cc(O)ccc23)cc1` reads > 100 µM (inactive).
As for `O=C(O)c1cccc(/N=N/c2c(S(=O)(=O)O)ccc3c2C(=O)c2ccccc2C3=O)c1O`, the GI50 in assay [1] and in assay [2] was > 100 µM (inactive) throughout.
For `CCOC(=O)C(NC(=O)CC)(Nc1cc(C)on1)C(F)(F)F` (stereo unspecified), the GI50 in assay [1] and in assay [2] was > 100 µM (inactive) in each case.
For `COC(=O)c1ccc2c(c1)S/C(=C/c1ccc3ccc4cccc5ccc1c3c45)S2`, the values for the GI50 in assay [1] and in assay [2] were 48.1 µM (inactive) and 52.5 µM (inactive), respectively.
Taken in the same sequence, the figures for `CNC(=S)Nc1ccc(OC)c2ccccc12` were > 10 µM (inactive) and > 10 µM (inactive).
Taken in the same sequence, the figures for `COC(=O)[C@H](Cc1c[nH]c2ccccc12)NC(=O)OCC1OC(n2cc(C)c(=O)[nH]c2=O)CC1N=[N+]=[N-]` (stereo partly specified) were > 100 µM (inactive) and > 100 µM (inactive).
For `CC1CCc2c(sc3ncnc(N/N=C/c4ccc(Cl)c(Cl)c4)c23)C1` (stereo unspecified), the GI50 is 19.8 µM (inactive) in assay [3], 3.79 µM (inactive) in assay [4] and 4.69 µM (inactive) in assay [5].
In the case of `Cc1nn(C(=O)c2ccc(Cl)cc2)c2c1C(c1cccc([N+](=O)[O-])c1)SC(=N)N2` (stereo unspecified), the GI50 in assay [1] and in assay [2] was > 10 µM (inactive) in each case.
In the case of `O=C(c1ccccc1)N1CCC(Nc2cccnc2)O1` (stereo unspecified), the GI50 in assay [1] and in assay [2] was > 100 µM (inactive) in each case.
Take `Cc1cn(C2CC(N)C(C(=O)O)O2)c(=O)[nH]c1=O` (stereo unspecified): the GI50 in assay [1] and in assay [2] was > 100 µM (inactive) throughout.
